Several values for one entry are separate records, joined by “and”; a condition that tells them apart may be missing. Identical values can stand only once. Like-named read-outs stand apart in the source and are kept apart here.
Tests used:
[1] = Part 1: tolerability of Compound A in healthy subjects (sessions 1-7); assay type: in vivo, human; details: single doses up to 600 mg, multiple doses 150 mg for two days then 100 mg once a day for 10 days
[2] = Pharmacokinetics of Compound A in chronic HBV patients, 28 day treatment; assay type: in vivo, human
Excerpt: In part 2 of this study (FIG. 1, sessions 8-9), the objective was to evaluate the safety, PK, and antiviral activity of Compound A in treatment naïve, chronic hepatitis B patients over a 28-day treatment period. The patient criteria were: • HBeAg-positive or negative • Plasma HBV DNA>2.0 log 10 IU/mL • ALT/AST<2.5×ULN • METAVIR stage<F3. 1.1 Patient Baseline Characteristics
The exposure (Cmax, AUC) increased in a dose-dependent manner with time-linear PK. The pharmacokinetics of Compound A were not markedly different between healthy volunteers and patients. Mean Compound A exposures in patients with CHB could be predicted from data in healthy volunteers. Mean (±SD) exposure in the 75 mg arm was within 90% prediction interval. […] Apparent clearance was low and similar in the two dosing groups (1 and 0.9 L/h at 25 mg and 75 mg, respectively).

HBV RNA = HBV RNA in treatment naïve chronic hepatitis B patients; assay type: in vivo, hepatitis B virus; details: N 8
Procedure: In part 2 of this study (FIG. 1, sessions 8-9), the objective was to evaluate the safety, PK, and antiviral activity of Compound A in treatment naïve, chronic hepatitis B patients over a 28-day treatment period. The patient criteria were: • HBeAg-positive or negative • Plasma HBV DNA>2.0 log 10 IU/mL • ALT/AST<2.5×ULN • METAVIR stage<F3. 1.1 Patient Baseline Characteristics HBV DNA was assessed for each patient weekly during this study (see FIG. 3). A mean reduction in plasma HBV DNA levels of 2.16 (±0.49 SD) log10 IU/mL (25 mg Compound A) and 2.89 (±0.48 SD) log10 IU/mL (75 mg Compound A) from baseline was observed after 28 days. Three patients dosed with 75 mg QD achieved HBV DNA below the level of quantification of the HBV DNA assay while none in the 25 mg Compound A group achieved this. A more pronounced and consistent decline in HBV DNA was observed across patients in the 75 mg group compared with the 25 mg group.

[3] = Oral bioavailability of Compound A 25-mg and 100-mg oral tablets, fasted and fed, in healthy adult subjects; assay type: in vivo, human; details: for Tmax: read-out: tmax (median)
Procedure: The primary objectives were to evaluate the oral bioavailability of Compound A when administered as single dose of 150 mg, composed of 6×25-mg oral tablets, under fasted and fed conditions, and as single dose of 300 mg, composed of 3×100-mg oral tablets, under fasted conditions in healthy adult subjects Part I was conducted to assess the bioavailability of new 25 mg oral tablets of Compound A under fasted and fed conditions, and of new 100 mg oral tablets of Compound A under fasted conditions, in healthy adult subjects. In Treatment Period 1 of Part I, all 16 subjects received a single 150 mg dose (6×25 mg oral tablets) under fed conditions (Treatment A). Thereafter, subjects were randomly assigned to either Arm 1 or Arm 2 in a 1:1 ratio. In Arm 1, subjects received a single 150 mg dose (6×25 mg oral tablets) under fasted conditions in Treatment Period 2 (Treatment B). In Arm 2, subjects received a single 300 mg dose (3×100 mg oral tablets) under fasted conditions in Treatment Period 2 (Treatment C). Full pharmacokinetic (PK) profiles of Compound A were determined over approximately 768 hours […] after Compound A administration on Day 1 of each treatment period. Safety and tolerability were assessed throughout the study. In Part I, 16 healthy adult subjects were included. After Treatment A (150 mg Compound A, fed) in Treatment Period 1, subjects were randomly assigned to either Arm 1 (n=8; Treatment B [150 mg Compound A, fasted]) or Arm 2 (Treatment C [[…]; 300 mg Compound A, fasted]) in a 1:1 ratio in Treatment Period 2. Fifteen subjects completed study participation in Part I, but all 16 subjects were included in the PK and safety analyses. […] Subjects had to be healthy on the basis of medical and surgical history, physical examination, 12 lead electrocardiogram (ECG), vital signs, and clinical laboratory tests performed at screening. Male and female subjects had to adhere to the contraceptive requirements as specified in the protocol. The study consisted of a screening phase, an admission phase, a treatment phase, and a follow-up phase (posttreatment phase). During the follow-up phase, subjects returned to the study site 10-14 days and 30-35 days after study drug administration in the last treatment period for a follow-up visit. The duration of each treatment phase was 33±3 days and the study duration per individual subject was at least 61 days (including admission and follow-up period), screening period not included.

[4] = 150 mg, 6 × 25 mg, Fasting, Treatment B
[5] = 150 mg, 6 × 25 mg, Fasting, Treatment B (Reference)
[6] = 150 mg, 6 × 25 mg, Fed, Treatment A
[7] = 300 mg, 3 × 100 mg, Fasting, Treatment C
[8] = 300 mg, 3 × 100 mg, Fasting, Treatment C (Test)
[9] = Treatment A (fed) vs Treatment B (fasted), 150 mg
[10] = Treatment C (3 × 100 mg) vs Treatment B (6 × 25 mg), fasting

Compound: C[C@H](NS(=O)(=O)c1cc(C(=O)Nc2ccc(F)c(C#N)c2)n(C)c1)C(F)(F)F [Compound A]
- tolerability [1]: well tolerated
- Apparent clearance ([2]; 25 mg): 1 L/h
- Mean dose normalized AUC 0-24 h ([2]; 25 mg): 1109 ng·h/mL
- Mean dose normalized Cmax at steady state ([2]; 25 mg): 56.6 ng/mL
- dose proportionality of pharmacokinetics ([2]; 25 mg and 75 mg arms): dose-proportional
- Apparent clearance ([2]; 75 mg): 0.9 L/h
- Mean dose normalized AUC 0-24 h ([2]; 75 mg): 1109 ng·h/mL
- Mean dose normalized Cmax at steady state ([2]; 75 mg): 53.2 ng/mL
- HBV RNA Day 29 Mean Change from Baseline (HBV RNA; 25 mg QD): −2.30 log10 cp/mL
- HBV RNA Day 29 Not detected (number of patients) (HBV RNA; 25 mg QD): 3
- HBV RNA Day 29 Mean Change from Baseline (HBV RNA; 75 mg QD): −1.85 log10 cp/mL
- HBV RNA Day 29 Not detected (number of patients) (HBV RNA; 75 mg QD): 6
- AUClast, dose normalized to 25 mg (mean) [3, 4]: 29467 ng·h/mL
- AUC∞, dose normalized to 25 mg (mean) [3, 4]: 30318 ng·h/mL
- Cmax, dose normalized to 25 mg (mean) [3, 4]: 320 ng/mL
- AUClast, dose normalized (to 25 mg), Geometric Mean [3, 5]: 27226 ng·h/mL
- AUC∞, dose normalized (to 25 mg), Geometric Mean [3, 5]: 28011 ng·h/mL
- Cmax, dose normalized (to 25 mg), Geometric Mean [3, 5]: 294 ng/mL
- AUClast, dose normalized to 25 mg (mean) [3, 6]: 28502 ng·h/mL
- AUC∞, dose normalized to 25 mg (mean) [3, 6]: 29580 ng·h/mL
- Cmax, dose normalized to 25 mg (mean) [3, 6]: 257 ng/mL
- AUClast, dose normalized to 25 mg (mean) [3, 7]: 30951 ng·h/mL
- AUC∞, dose normalized to 25 mg (mean) [3, 7]: 32747 ng·h/mL
- Cmax, dose normalized to 25 mg (mean) [3, 7]: 231 ng/mL
- AUClast, dose normalized (to 25 mg), Geometric Mean [3, 8]: 30835 ng·h/mL
- AUC∞, dose normalized (to 25 mg), Geometric Mean [3, 8]: 32329 ng·h/mL
- Cmax, dose normalized (to 25 mg), Geometric Mean [3, 8]: 231 ng/mL
- AUClast Geometric Mean Ratio [3, 9]: 101.05%
- AUC∞ Geometric Mean Ratio [3, 9]: 101.91%
- Cmax Geometric Mean Ratio [3, 9]: 85.8% and 85.84%
- Cmax lower under fed conditions [3, 9]: 14.2%
- Mean (range) t½term ([3]; Treatment A, 150 mg fed): 134.3 (65.7-221.6) hours
- Mean (range) t½term ([3]; Treatment B, 150 mg fasted): 123.9 (72.3-195.7) hours
- AUClast, dose normalized, Geometric Mean Ratio [3, 10]: 113.26%
- AUC∞, dose normalized, Geometric Mean Ratio [3, 10]: 115.42%
- Cmax, dose normalized, Geometric Mean Ratio [3, 10]: 78.4% and 78.44%
- dose normalized Cmax lower for the 100 mg tablet strength compared to the 25 mg tablet strength ([3]; Treatment C vs Treatment B, fasted): 21.6%
- Mean (range) t½term ([3]; Treatment C, 300 mg fasted): 161.1 (111.5-257.3) hours
- AUC(0-t) ([3]; both sexes, human, in vivo, oral, 150 mg, 6 × 25 mg, Fasting, Treatment B (Reference), read-out: AUClast, Geometric Mean): 163 µg·h/mL
- AUC(0-inf) ([3]; both sexes, human, in vivo, oral, 150 mg, 6 × 25 mg, Fasting, Treatment B (Reference), read-out: AUC∞, Geometric Mean): 168 µg·h/mL
- Cmax ([3]; both sexes, human, in vivo, oral, 150 mg, 6 × 25 mg, Fasting, Treatment B (Reference), read-out: Cmax, Geometric Mean): 1770 ng/mL
- AUC(0-t) ([3]; both sexes, human, in vivo, oral, 150 mg, 6 × 25 mg, Fasting, Treatment B, read-out: AUClast (mean)): 177 µg·h/mL
- AUC(0-inf) ([3]; both sexes, human, in vivo, oral, 150 mg, 6 × 25 mg, Fasting, Treatment B, read-out: AUC∞ (mean)): 182 µg·h/mL
- Cmax ([3]; both sexes, human, in vivo, oral, 150 mg, 6 × 25 mg, Fasting, Treatment B, read-out: Cmax (mean)): 1920 ng/mL
- Tmax ([3]; both sexes, human, in vivo, oral, 150 mg, 6 × 25 mg, Fasting, Treatment B): 1.75 h
- Cmax ([3]; both sexes, human, in vivo, oral, 150 mg, 6 × 25 mg, Fed (Standard Breakfast), Treatment A, read-out: Cmax (mean)): 1540 ng/mL
- AUC(0-t) ([3]; both sexes, human, in vivo, oral, 150 mg, 6 × 25 mg, Fed, Treatment A (Test), read-out: AUClast, Geometric Mean): 165 µg·h/mL
- AUC(0-inf) ([3]; both sexes, human, in vivo, oral, 150 mg, 6 × 25 mg, Fed, Treatment A (Test), read-out: AUC∞, Geometric Mean): 171 µg·h/mL
- Cmax ([3]; both sexes, human, in vivo, oral, 150 mg, 6 × 25 mg, Fed, Treatment A (Test), read-out: Cmax, Geometric Mean): 1520 ng/mL
- AUC(0-t) ([3]; both sexes, human, in vivo, oral, 150 mg, 6 × 25 mg, Fed, Treatment A, read-out: AUClast (mean)): 171 µg·h/mL
- AUC(0-inf) ([3]; both sexes, human, in vivo, oral, 150 mg, 6 × 25 mg, Fed, Treatment A, read-out: AUC∞ (mean)): 177 µg·h/mL
- Tmax ([3]; both sexes, human, in vivo, oral, 150 mg, 6 × 25 mg, Fed, Treatment A): 4 h
- AUC(0-t) ([3]; both sexes, human, in vivo, oral, 300 mg, 3 × 100 mg, Fasting, Treatment C, read-out: AUClast (mean)): 371 µg·h/mL
- AUC(0-inf) ([3]; both sexes, human, in vivo, oral, 300 mg, 3 × 100 mg, Fasting, Treatment C, read-out: AUC∞ (mean)): 393 µg·h/mL
- Cmax ([3]; both sexes, human, in vivo, oral, 300 mg, 3 × 100 mg, Fasting, Treatment C, read-out: Cmax (mean)): 2770 ng/mL
- Tmax ([3]; both sexes, human, in vivo, oral, 300 mg, 3 × 100 mg, Fasting, Treatment C): 3 h
- clearance ([3]; both sexes, human, in vivo, oral, over all treatments and individuals, read-out: Clearance (CUF)): 7.83 to 25.8 mL/min
